Among the data in patent US20250011368A1, “DLL3 TARGETING PEPTIDES AND CONSTRUCTS THEREOF” (MARIANA ONCOLOGY INC., priority 2023, published 2025) are Kd values, retold here.

SMILES strings stand for the structures. Numbered stars: 1 amine (or outer) side, 2 acyl side, 3 side chain; on linkers, the order of the positions; unused ones are H or OH. Bridge positions count the residues as written; N and C are the ends. Square brackets hold non-standard residues; d marks the D form. Side chains are listed from the residue outwards. Peptide text beside a SMILES is read from it. * marks the point of attachment. ξ: configuration not given here. X9 = O=C(O)CN1CCN(CC(=O)O)CCN(CC(=O)NCCCOCCOCCOCCCN*)CCN(CC(=O)O)CC1; DOTA = O=C(O)CN1CCN(CC(=O)O)CCN(CC(=O)*)CCN(CC(=O)O)CC1; Trp(7-Cl) = N[C@@H](Cc1c[nH]c2c(Cl)cccc12)C(=O)O; γGlu = O=C(O)[C@H](CCC(=O)[*:2])N[*:1]; 2Nal = N[C@@H](Cc1ccc2ccccc2c1)C(=O)O; Suc = O=C(CCC(=O)[*:2])[*:1]; NMeA = CN[C@@H](C)C(=O)O; Aze = O=C(O)[C@@H]1CCN1; ξD = NC(CC(=O)O)C(=O)O; Sar = CNCC(=O)O

The test concerns the target T1, human DLL3 (Homo sapiens, UniProt Q9NYJ7).
T1 sequence (Q9NYJ7 27-618): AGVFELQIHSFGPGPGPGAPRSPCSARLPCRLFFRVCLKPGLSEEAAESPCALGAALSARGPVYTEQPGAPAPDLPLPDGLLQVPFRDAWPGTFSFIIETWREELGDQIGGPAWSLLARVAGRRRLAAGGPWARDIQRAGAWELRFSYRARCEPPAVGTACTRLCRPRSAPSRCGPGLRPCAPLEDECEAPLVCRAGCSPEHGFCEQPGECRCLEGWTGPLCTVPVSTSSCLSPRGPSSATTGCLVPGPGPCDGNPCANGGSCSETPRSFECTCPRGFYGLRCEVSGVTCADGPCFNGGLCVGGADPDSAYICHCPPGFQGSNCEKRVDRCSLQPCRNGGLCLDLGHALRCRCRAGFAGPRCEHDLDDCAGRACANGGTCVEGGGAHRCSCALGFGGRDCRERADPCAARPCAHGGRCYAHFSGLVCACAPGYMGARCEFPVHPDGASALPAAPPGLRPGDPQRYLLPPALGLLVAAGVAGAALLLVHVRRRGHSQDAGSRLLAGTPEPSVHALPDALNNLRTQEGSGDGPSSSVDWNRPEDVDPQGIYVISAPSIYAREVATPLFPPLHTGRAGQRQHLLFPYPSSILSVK
The test is described as follows: Affinity determination by Surface Plasmon Resonance (SPR). The note with it: 25° C., biotinylated human DLL3 immobilized on streptavidin sensor chip, 1:1 binding model; read-out: SPR KD. In kind it is binding. A digest of the protocol: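 Biotinylated human DLL3 was captured on a streptavidin chip with a reference surface. Compounds at several concentrations were injected at 100 μL/minute in phosphate buffer (137 mM NaCl, 2.7 mM KCl, 0.05% P20, 2% DMSO). Affinity and kinetics came from 1:1 model fits of the sensorgrams.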

Consider `CC[C@H](C)[C@H](NC(=O)[C@@H](NC(=O)[C@H](Cc1c[nH]c2ccccc12)NC(C)=O)[C@@H](C)O)C(=O)N[C@H]1CSSC[C@@H](C(=O)N[C@@H](Cc2c[nH]c3ccccc23)C(=O)N2CCC[C@H]2C(=O)N[C@H](CCCCNC(=O)CN2CCN(CC(=O)O)CCN(CC(=O)O)CCN(CC(=O)O)CC2)C(N)=O)NC(=O)[C@H](CC(=O)O)NC(=O)[C@H](Cc2cnc[nH]2)NC(=O)[C@H](Cc2ccc3ccccc3c2)NC(=O)[C@H](CC(N)=O)NC(=O)[C@H](CO)NC1=O` [compound 208, Ac-W-T-I-C(3)-(Ser)-N-(2Nal)-H-D-C(3)-W-P-[D-Lys(DOTA)]-NH2] (Ac-WTICSN[2Nal]HDCWP[dK](DOTA)-NH2; disulfide 4-10), for which the Kd is less than 1 nM.

Regarding `CC[C@H](C)[C@H](NC(=O)[C@@H](NC(=O)[C@H](Cc1c[nH]c2ccccc12)NC(C)=O)[C@@H](C)O)C(=O)N[C@H]1CSSC[C@@H](C(=O)N[C@@H](Cc2c[nH]c3ccccc23)C(=O)N2CCC[C@H]2C(=O)N[C@H](CCCCNC(=O)CN2CCN(CC(=O)O)CCN(CC(=O)O)CCN(CC(=O)O)CC2)C(N)=O)NC(=O)[C@H](CC(=O)O)NC(=O)[C@H](Cc2cnc[nH]2)NC(=O)[C@H](Cc2ccc3ccccc3c2)NC(=O)[C@H](CC(=O)O)NC(=O)[C@H](CC(N)=O)NC1=O` [compound 209, Ac-W-T-I-C(3)-N-(Asp)-(2Nal)-H-D-C(3)-W-P-[D-Lys(DOTA)]-NH2] (Ac-WTICND[2Nal]HDCWP[dK](DOTA)-NH2; disulfide 4-10), the Kd is less than 1 nM.

As to `CC[C@H](C)[C@H](NC(=O)[C@@H](NC(=O)[C@H](Cc1c[nH]c2ccccc12)NC(C)=O)[C@@H](C)O)C(=O)N[C@H]1CSSC[C@@H](C(=O)N[C@@H](Cc2c[nH]c3ccccc23)C(=O)N2CCC[C@H]2C(=O)N[C@H](CCCCNC(=O)CN2CCN(CC(=O)O)CCN(CC(=O)O)CCN(CC(=O)O)CC2)C(N)=O)NC(=O)[C@H](CC(=O)O)NC(=O)[C@H](Cc2cnc[nH]2)NC(=O)[C@H](Cc2ccc3ccccc3c2)NC(=O)[C@H](CCCCN)NC(=O)[C@H](CC(N)=O)NC1=O` [compound 213, Ac-W-T-I-C(3)-N-(Lys)-(2Nal)-H-D-C(3)-W-P-[D-Lys(DOTA)]-NH2] (Ac-WTICNK[2Nal]HDCWP[dK](DOTA)-NH2; disulfide 4-10), the Kd is less than 1 nM.

In the case of `CC[C@H](C)[C@H](NC(=O)[C@@H](NC(=O)[C@H](Cc1c[nH]c2c(Cl)cccc12)NC(C)=O)[C@@H](C)O)C(=O)N[C@H]1CSSC[C@@H](C(=O)N[C@@H](Cc2c[nH]c3ccccc23)C(=O)N2CCC[C@H]2C(=O)N[C@H](CCCCNC(=O)CN2CCN(CC(=O)O)CCN(CC(=O)O)CCN(CC(=O)O)CC2)C(N)=O)NC(=O)[C@H](CC(=O)O)NC(=O)[C@H](Cc2cnc[nH]2)NC(=O)[C@H](Cc2c[nH]c3ccccc23)NC(=O)[C@H](CC(N)=O)NC(=O)[C@H](CC(N)=O)NC1=O` [compound 226, Ac-(7-CI-W)-T-I-C(3)-N-N-W-H-D-C(3)-W-P-[D-Lys(DOTA)]-NH2] (Ac-[Trp(7-Cl)]TICNNWHDCWP[dK](DOTA)-NH2; disulfide 4-10), the Kd is 1 to 10 nM.

Take `CC[C@H](C)[C@H](NC(=O)[C@@H](NC(=O)[C@H](Cc1c[nH]c2ccccc12)NC(C)=O)[C@@H](C)O)C(=O)N[C@H]1CSSC[C@@H](C(=O)N[C@@H](Cc2c[nH]c3ccccc23)C(=O)N(C)CC(=O)N[C@H](CCCCNC(=O)CN2CCN(CC(=O)O)CCN(CC(=O)O)CCN(CC(=O)O)CC2)C(N)=O)NC(=O)[C@H](CC(=O)O)NC(=O)[C@H](Cc2cnc[nH]2)NC(=O)[C@H](Cc2c[nH]c3ccccc23)NC(=O)[C@H](CC(N)=O)NC(=O)[C@H](CC(N)=O)NC1=O` [compound 227, Ac-W-T-I-C(3)-N-N-W-H-D-C(3)-W-Sar-[D-Lys(DOTA)]-NH2] (Ac-WTICNNWHDCW[Sar][dK](DOTA)-NH2; disulfide 4-10): the Kd is 1 to 10 nM.

Consider `CC[C@H](C)[C@H](NC(=O)[C@@H](NC(=O)[C@H](Cc1c[nH]c2ccccc12)NC(C)=O)[C@@H](C)O)C(=O)N[C@H]1CSSC[C@@H](C(=O)N[C@@H](Cc2c[nH]c3ccccc23)C(=O)N2CC[C@H]2C(=O)N[C@H](CCCCNC(=O)CN2CCN(CC(=O)O)CCN(CC(=O)O)CCN(CC(=O)O)CC2)C(N)=O)NC(=O)[C@H](CC(=O)O)NC(=O)[C@H](Cc2cnc[nH]2)NC(=O)[C@H](Cc2c[nH]c3ccccc23)NC(=O)[C@H](CC(N)=O)NC(=O)[C@H](CC(N)=O)NC1=O` [compound 228, Ac-W-T-I-C(3)-N-N-W-H-D-C(3)-W-Aze-[D-Lys(DOTA)]-NH2] (Ac-WTICNNWHDCW[Aze][dK](DOTA)-NH2; disulfide 4-10), for which the Kd was 1 to 10 nM.

Consider `CC[C@H](C)[C@H](NC(=O)[C@@H](NC(=O)[C@H](Cc1c[nH]c2ccccc12)NC(C)=O)[C@@H](C)O)C(=O)N[C@H]1CSSC[C@@H](C(=O)N[C@@H](Cc2c[nH]c3ccccc23)C(=O)N(C)[C@@H](C)C(=O)N[C@@H](CCCCNC(=O)CN2CCN(CC(=O)O)CCN(CC(=O)O)CCN(CC(=O)O)CC2)C(N)=O)NC(=O)[C@H](CC(=O)O)NC(=O)[C@H](Cc2c[nH]cn2)NC(=O)[C@H](Cc2c[nH]c3ccccc23)NC(=O)[C@H](CC(N)=O)NC(=O)[C@H](CC(N)=O)NC1=O` [compound 229, Ac-W-T-I-C(3)-N-N-W-H-D-C(3)-W-NmeA-[D-Lys(DOTA)]-NH2] (Ac-WTICNNWHDCW[NMeA]K(DOTA)-NH2; disulfide 4-10), for which the equilibrium dissociation constant (Kd) was in the range of 10 to 100 nM.

`CC[C@H](C)[C@H](NC(=O)[C@@H](NC(=O)[C@H](Cc1c[nH]c2ccccc12)NC(C)=O)[C@@H](C)O)C(=O)N[C@H]1CSSC[C@@H](C(=O)N[C@@H](Cc2c[nH]c3ccccc23)C(=O)N2CCC[C@H]2C(=O)N[C@H](CCCCNC(=O)CNC(=O)CNC(=O)CCC(=O)NCCCOCCOCCOCCCNC(=O)CN2CCN(CC(=O)O)CCN(CC(=O)O)CCN(CC(=O)O)CC2)C(N)=O)NC(=O)[C@H](CC(=O)O)NC(=O)[C@H](Cc2cnc[nH]2)NC(=O)[C@H](Cc2ccc3ccccc3c2)NC(=O)[C@H](CC(N)=O)NC(=O)[C@H](CC(N)=O)NC1=O` [compound 230, Ac-W-T-I-C(3)-N-N-(2Nal)-H-D-C(3)-W-P-[D-Lys(G-G-TTDS-DOTA)]-NH2] (Ac-WTICNN[2Nal]HDCWP[dK]([Gly-Gly-Suc-X9])-NH2; disulfide 4-10): the Kd was less than 1 nM.

`CC[C@H](C)[C@H](NC(=O)[C@@H](NC(=O)[C@H](Cc1c[nH]c2ccccc12)NC(C)=O)[C@@H](C)O)C(=O)N[C@H]1CSSC[C@@H](C(=O)N[C@@H](Cc2c[nH]c3ccccc23)C(=O)N2CCC[C@H]2C(=O)NCC(=O)NCC(=O)N[C@@H](CO)C(=O)NCC(=O)NCC(=O)N[C@@H](CO)C(=O)N[C@H](CCCCNC(=O)CN2CCN(CC(=O)O)CCN(CC(=O)O)CCN(CC(=O)O)CC2)C(N)=O)NC(=O)[C@H](CC(=O)O)NC(=O)[C@H](Cc2cnc[nH]2)NC(=O)[C@H](Cc2ccc3ccccc3c2)NC(=O)[C@H](CC(N)=O)NC(=O)[C@H](CC(N)=O)NC1=O` [compound 231, Ac-W-T-I-C(3)-N-N-(2Nal)-H-D-C(3)-W-P-G-G-S-G-G-S-[D-Lys(DOTA)]-NH2] (Ac-WTICNN[2Nal]HDCWPGGSGGS[dK](DOTA)-NH2; disulfide 4-10): the Kd is less than 1 nM.

`CC[C@H](C)[C@H](NC(=O)[C@@H](NC(=O)[C@H](Cc1c[nH]c2ccccc12)NC(C)=O)[C@@H](C)O)C(=O)N[C@H]1CSSC[C@@H](C(=O)N[C@@H](Cc2c[nH]c3ccccc23)C(=O)N2CCC[C@H]2C(=O)NCC(=O)N[C@@H](CO)C(=O)NCC(=O)N[C@@H](CO)C(=O)NCC(=O)N[C@@H](CO)C(=O)N[C@H](CCCCNC(=O)CN2CCN(CC(=O)O)CCN(CC(=O)O)CCN(CC(=O)O)CC2)C(N)=O)NC(=O)C(CC(=O)O)NC(=O)[C@H](Cc2cnc[nH]2)NC(=O)[C@H](Cc2ccc3ccccc3c2)NC(=O)[C@H](CC(N)=O)NC(=O)[C@H](CC(N)=O)NC1=O` (stereo partly drawn) [compound 232, Ac-W-T-I-C(3)-N-N-(2Nal)-H-D-C(3)-W-P-G-S-G-S-G-S-[D-Lys(DOTA)]-NH2] (Ac-WTICNN[2Nal]H[ξD]CWPGSGSGS[dK](DOTA)-NH2; disulfide 4-10): the Kd was less than 1 nM.

`CC[C@H](C)[C@H](NC(=O)[C@@H](NC(=O)[C@H](Cc1c[nH]c2ccccc12)NC(C)=O)[C@@H](C)O)C(=O)N[C@H]1CSSC[C@@H](C(=O)N[C@@H](Cc2c[nH]c3ccccc23)C(=O)N2CCC[C@H]2C(=O)N[C@@H](CCC(=O)N[C@H](CCCCNC(=O)CN2CCN(CC(=O)O)CCN(CC(=O)O)CCN(CC(=O)O)CC2)C(N)=O)C(=O)O)NC(=O)[C@H](CC(=O)O)NC(=O)[C@H](Cc2cnc[nH]2)NC(=O)[C@H](Cc2ccc3ccccc3c2)NC(=O)[C@H](CC(N)=O)NC(=O)[C@H](CC(N)=O)NC1=O` [compound 233, Ac-W-T-I-C(3)-N-N-(2Nal)-H-D-C(3)-W-P-gE-[D-Lys(DOTA)]-NH2] (Ac-WTICNN[2Nal]HDCWP[γGlu][dK](DOTA)-NH2; disulfide 4-10): the equilibrium dissociation constant (Kd) was less than 1 nM.
